Patent US20210147900A1, “METHODS AND COMPOSITIONS FOR DETECTING BETA-HYDROXYBUTYRATE IN BIOLOGICAL FLUIDS” (F.A.T. Stats LLC, priority 2019, published 2021)

Assay: Solubility / appearance of coenzyme Q with β-cyclodextrin in water or Tris/NaOH buffer
Type: physicochemical
Conditions: for Appearance: in water, 5 hours at 75° C. and 5 hours at 85° C.
Description: First, 0.107 grams of β-cyclodextrin was dissolved in 4.8 grams of the Tris/NaOH buffer solution (pH 8.7). This mixture this heated at 45° C. for 5 minutes and then 0.082 g of coenzyme Q0 was added. Heating was continued until coenzyme Q0 was no longer visible as a solid. The coenzyme Q0/β-cyclodextrin solution was used within 2 hours of making it. Alternatively, 0.0074 grams of coenzyme Q0 and 0.0481 grams of β-cyclodextrin was mixed with 1.2070 grams water. This mixture was heated at 50° C. for 20 minutes with stirring. […] This procedure results in a fully solubilized form of coenzyme Q0 which is optically transparent and has no visible particles of coenzyme Q0 in the mixture. It is important that the coenzyme Q0 mixture is fully soluble so that it may be mixed with other water-soluble ingredients and applied to a paper test strip for further reactions with biological solutes. If the coenzyme Q0/β-cyclodextrin mixture is not water soluble, it cannot provide a uniform distribution of reactions for the test for BHB in a biological fluid as disclosed herein.
The procedure for solubilizing coenzyme Q10 in U.S. Patent Application Publication No. US 2007/0202090 A1 was followed and results are listed below in Table 17. Coenzyme Q10 and β-cyclodextrin were combined with water in the following molar ratios of coenzyme Q10 to β-cyclodextrin: 1:1; 1:5; and 1:10. Each solution was heated for 5 hours at 75° C. and then an additional 5 hours at 85° C.

Row | Appearance (molar ratio coenzyme Q10 to β-cyclodextrin 1:1) | Appearance (molar ratio coenzyme Q10 to β-cyclodextrin 1:5) | Appearance (molar ratio coenzyme Q10 to β-cyclodextrin 1:10) | Incorporation in basic buffer solution with β-cyclodextrin (same procedure as Example 2 (Tris/NaOH buffer pH 8.7, heating)) | SMILES | Appearance of mixture with β-cyclodextrin in water (0.0074 g coenzyme Q0, 0.0481 g β-cyclodextrin, 1.2070 g water, 50° C. for 20 minutes with stirring)
1 | not transparent; | not transparent; | not transparent; | could not be adequately incorporated | COC1=C(OC)C(=O)C(C/C=C(\C)CC/C=C(\C)CC/C=C(\C)CC/C=C(\C)CC/C=C(\C)CC/C=C(\C)CC/C=C(\C)CC/C=C(\C)CC/C=C(\C)CCC=C(C)C)=C(C)C1=O [coenzyme Q10] | –
2 | – | – | – | – | COC1=C(OC)C(=O)C(C)=CC1=O [coenzyme Q0, 2,3-dimethoxy-5-methyl-p-benzoquinone] | transparent solution with no visible particles
